Read-outs that look alike come from different tables or passages of the source.
Test system: Leukemia L-1210
Conditions: for number of mice cured after 30 days of the administration of the cells of Leukemia L-1210: parenthesized figure; for number of mice cured after 30 days of the administration of the cells of Leukemia L-1210 / T/C x 100: 6 mice per group; for T/C x 100: ratio of mean survival time test/control x 100
From the text: Cells of Leukemia L-1210 were intraperitoneally administered to each of groups of mice(6 animals per group) at a rate of 10^5 cells per mouse, and while breeding the mice of control group, each of the compounds of the present invention was intraperitoneally administered to each mouse of the test groups after one, five and nine days of the administration of the cells, the mice of the test groups being bred similarly to those of control group. After observing the mortality of all the mice, the mean survival time period after the administration of the cells was obtained in each group including control group.

[1] = 25 mg/kg i.p. on days 1, 5 and 9
[2] = 25 mg/kg intraperitoneally on days 1, 5 and 9 after 10^5 L-1210 cells i.p.
[3] = 50 mg/kg i.p. on days 1, 5 and 9
[4] = 50 mg/kg intraperitoneally on days 1, 5 and 9 after 10^5 L-1210 cells i.p.
[5] = 100 mg/kg intraperitoneally on days 1, 5 and 9 after 10^5 L-1210 cells i.p.
[6] = 100 mg/kg i.p. on days 1, 5 and 9
[7] = 6.25 mg/kg intraperitoneally on days 1, 5 and 9 after 10^5 L-1210 cells i.p.
[8] = 12.5 mg/kg intraperitoneally on days 1, 5 and 9 after 10^5 L-1210 cells i.p.

Substance | number of mice cured after 30 days of the administration of the cells of Leukemia L-1210 [1] | T/C x 100 [2] | number of mice cured after 30 days of the administration of the cells of Leukemia L-1210 [3] | T/C x 100 [4] | T/C x 100 [5] | rate of life prolongation (T/C x 100) (Table 2, dose not stated) [%] | number of mice cured after 30 days of the administration of the cells of Leukemia L-1210 [6] | number of mice cured after 30 days of the administration of the cells of Leukemia L-1210 (6.25 mg/kg i.p. on days 1, 5 and 9) | T/C x 100 [7] | T/C x 100 [8]
Pt(NO3)(tetra-O-acetyl-α-D-glucuronato)(cis-dl-AMCHA) [Compound No. 6] | 1 | 281 | 3 | 402 | 120 | – | – | – | – | –
Pt(NO3)(tetra-O-acetyl-β-D-glucuronato)(cis-dl-AMCHA)·3/2H2O [Compound No. 10] | 1 | 204 | – | 242 | 157 | 400 | – | – | – | –
Pt(NO3)(tetra-O-acetyl-β-D-glucuronato)(trans-dl-AMCHA)·2H2O [Compound No. 9] | – | – | 1 | 253 | 206 | – | 2 | – | – | –
Pt(penta-O-acetyl-D-gluconato)2(trans-dl-AMCHA)·H2O [Compound No. 15] | – | – | – | 267 | 103 | – | – | – | – | –
Pt(tetra-O-acetyl-α-D-glucuronato)2(cis-dl-AMCHA) [Compound No. 4] | – | 145 | 1 | 198 | 277 | – | 2 | – | – | –
PtCl(D-glucuronato)(cis-dl-AMCHA)·H2O [Compound No. 2] | – | 156 | – | – | – | – | – | 2 | 271 | 189
PtCl(D-glucuronato)(trans-dl-AMCHA)·2H2O [Compound No. 1] | 2 | 293 | – | – | – | – | – | – | 144 | 118

Reference: patent publication EP0207202A1, “Anti-tumor platinum complexes” (Kidani, Yoshinori, priority 1985, dated 1987)
